A word on the EC50: it is the concentration needed to bring the measured effect to its halfway point.

This is an account of results in article PMC4912613, “A broad analysis of resistance development in the malaria parasite” (Nature Communications, 2016).

The subject of data set [1] is P. falciparum. Also noted: method as in PMID 26542470. The conditions noted are these: known rate of action; cited from earlier work.
The test system of another data set is W2. The experiment in a line: Cross-resistance EC50 assay, W2 parent. The conditions noted are these: Plasmodium falciparum, 48 h, read-out: W2F6 (PARENT) Average EC50. The format is cell-based, Plasmodium falciparum. An excerpt: (§1) Multidrug resistance alleles, including mutations in P. falciparum chloroquine resistance transporter (pfcrt) and P. falciparum multi-drug resistance transporter 1 (pfmdr1) are very common in field isolates. Therefore, we sought to assess the degree to which pre-existing resistance alleles would contribute to a loss of potency for this diverse collection of small molecule compounds. Fifteen clones derived from three main parent lines were chosen to maximize diversity in mutated pathways and genetic backgrounds, thus representing the variety of resistance seen in the field: 3D7 (ref. [23]), W2 (ref. [24]) or Dd2 (ref. [25]). The 3D7 line originates from the clone of a Netherlands clinical isolate strain[23][26] and is generally considered to be drug sensitive, though it does convey resistance to sulfadoxine. Conversely, W2 (ref. [24], [27]) and Dd2 (ref. [25]) are multi-drug-resistant lines originating from the Indochina III/CDC isolate, which contain point mutations in pfcrt as well as amplifications in pfmdr1 and GTP cyclohydrolase.
(§2) To evaluate potential overlapping activity against known antimalarial drug targets, we performed dose-response studies with each compound against our assembled set of drug-resistant lines and their corresponding parents, in an asexual blood stage proliferation assay (Table 1). Comparisons were made to the drug-sensitive strain 3D7 when a parent was unavailable (TM90C2A, W2 and Dd2). As laboratories conducted EC50 assays with different strains and protocols, all comparisons were made between assays from the same laboratory and under the same assay conditions. Compounds displaying >5-fold EC50 shifts relative to the parent or sensitive strain were flagged as having potentially non-novel targets. Average fold shifts per strain ranged from 0.82 to 2.34, with a median of 1.23 indicating there was not common resistance to any one resistant clone. No resistance patterns were observed when classifying the compounds based on chemical structure, but this was not surprising given the diversity of compounds chosen. On the other hand, given that these confirmed compounds were derived from larger unconfirmed hit lists to which some filtration criteria may have been applied (for example, elimination of obvious dihydrofolate reductase inhibitors[32]), some[10][11][12][13] pre-existing bias may exist in the set.
(§3) The 48-h assay was carried out in a 96-well format following standard methods using the ^3H-hypoxanthine incorporation assay. The raw EC50 values corresponding to this assay can be found in Supplementary Data 3. Briefly, this assay relies on the parasite incorporation of labelled hypoxanthine that is proportional to P. falciparum growth. A culture of parasitized RBCs (0.5% parasitemia with a percentage of ring stage higher than 70% of total parasitemia, 2.0% haematocrit) in RPMI-1640, […] and 5 μM hypoxanthine was exposed to drug serial dilutions. Plates were incubated for 24 h at 37 °C, 5% CO2, 5% O2 and 90% N2. After 24 h of incubation, ^3H-hypoxanthine was added and plates were incubated for an additional 24-h period. After that, parasites were harvested on a glass fibre filter using a TOMTEC Cell Harvester 96. Filters were dried and melt-on scintillator sheets were used to determine the incorporation of ^3H-hypoxanthine. Radioactivity was measured using a microbeta counter. Data were normalized using the incorporation of the positive (parasitized RBCs without drug) and negative (same culture with artesunate at 2 μM) controls. All assays were conducted in triplicate using three independently grown cultures, and EC50 values were determined using the XLfit add-in module for Excel (version 2.3.1) from Grafit (version 5.3.1.3), where parameter h is the assay hill slope, x is the compound concentration and y is the inhibition of growth effect. The XLfit equation is: […]
(§4) Alternatively, a SYBR Green-based proliferation approach was used for the 72-h assay, as previously described. […]

Another data set deals with 3D7. The experiment in a line: Cross-resistance EC50 assay, 3D7 parent / sensitive strain. It counts as cell-based. The conditions noted are these: Plasmodium falciparum, hypoxanthine 48-hour assay, synchronized parasites, 96-well format.
Description: as §1, §2, §3, §4

Data set [2] relates to TM90C2A (DHFR, folate pathway; compared with 3D7). The experiment in a line: Cross-resistance EC50 assay, TM90C2A. It counts as cell-based. The following applies: Plasmodium falciparum, 48 h, read-out: TM90C2A (3D7 Parent) Average EC50.
Description: as §2, §3
EC50 values for each strain were compared with those of the corresponding parent strain to determine fold-shift changes and identify resistance. To minimize the cause variance between assays, all comparisons were conducted between strains assayed under identical conditions. A one-way ANOVA followed by a Dunnet's post-test was conducted in GraphPad Prism to identify significant changes between the parent and resistant strain.

Another data set can be described thus: Hepatocyte toxicity. The conditions noted are these: human; read-out: HepG2 EC50 (hepatocyte toxicity). It counts as cell-based, human. An excerpt:
(§5) As drugs that eliminate multiple stages of the parasite lifecycle will be critical components in global efforts to eliminate malaria, we were interested in knowing whether the compounds in our study had additional activities against either the liver and/or transmission stages of the parasite lifecycle. To determine this, we first evaluated the compounds in additional phenotypic assays. The first assay was a P. berghei hepatocyte invasion and development assay, which predicts causal prophylactic activity. Hepatocyte toxicity was additionally tested to identify false-positive activity in the liver stage due to host-cell toxicity. Assays were executed in duplicate using a 12-point EC50 curve at starting concentrations of 5 μM or 50 μM (Supplementary Table 1).
(§6) Liver-stage activity was determined by pretreating hepatic human cells (HepG2) for 2 h with compound in 1,536-well plates infected with freshly dissected P. berghei sporozoites. After 48 h of incubation, the viability of P. berghei exoerythrocytic forms was measured by luminescence reaction light output using BrightGlo (Promega). Varying levels of compound concentration were used (5 μM or 50 μM) due to the stock concentration supplied.

Data set [3] relates to P. berghei exoerythrocytic forms. Description: Liver-stage P. berghei hepatocyte invasion and development assay (luminescence, HepG2). The conditions noted are these: Plasmodium berghei, HepG2, text values; read-out: Liver stage EC50 (PfLuc EC50). It counts as cell-based, Plasmodium berghei.
Description: as §5, §6

Data set [4] concerns Stage 5 gametocytes from P. falciparum NF54. The experiment in a line: Late-stage (stage V) gametocyte survival assay, MitoTracker. It counts as cell-based, Plasmodium falciparum. The following applies: Plasmodium falciparum; P. falciparum NF54, 72 h; read-out: Stage 5 Gametocyte EC50. Here is the method:
The second assay was a late-stage (stage V) gametocyte survival assay, which predicts transmission-blocking activity. […] Positive and negative control compounds included puromycin (0.61±0.11 μM) and atovaquone (> 12.50 μM), respectively.
To test sexual-stage activity, compounds were tested against late-stage gametocytes using a MitoTracker fluorescent-based assay. Specifically, synchronized stage V gametocytes were incubated with compound for 72 h. MitoTracker Red CMXRos (Life Technologies) was added to each well (final concentration: 500 nM) together with saponin to lyse the RBCs. Each plate was then imaged with an Operetta High Content Imaging System (Perkin Elmer) for fluorescence (590–640 nm). Varying levels of compound concentration were used (1.25 μM or 12.5 μM) due to the stock concentration supplied.
The gametocytocidal activity was measured using high-content image analysis software (Harmony, Perkin Elmer). The readout was based on number of metabolically active gametocytes per well.

Data set [5] concerns P. falciparum. The experiment in a line: Rate of killing (parasite viability) assay. The format is cell-based, Plasmodium falciparum. The following applies: profile compared with chloroquine, pyrimethamine, atovaquone; 48 h treatment. Here is the method: To identify whether selection success could be predicted by compound speed of action, and to gain a greater insight into the potential mechanisms of action, assays were performed to test the killing rate (Supplementary Data 1)[33]. To quantify the killing rate, viability time-course profiles for each compound were compared with antimalarials known to have fast (chloroquine), moderate (pyrimethamine) or slow (atovaquone) rate of action. These rates were then compared with other compound characteristics, including cross-resistance profile, selection success, potency and structural characteristics to identify any possible trends. […] One compound's rate of killing, MMV666080, was unidentifiable due to compound availability. No correlation was seen between compound structure and speed of action. Additionally, there was no correlation found between killing rate and compound potency against 3D7, nor between potency and selection success (Supplementary Fig. 2).
Rate of killing was determined for each compound following a previously described methodology, which uses the invasion of fresh erythrocytes as surrogate of parasite viability. Briefly, parasites were treated with compounds for 48 h. Compound was washed out and fresh-labelled erythrocytes added to the treated parasites. Double stained erythrocytes (RBC label plus parasite DNA label) were quantified and per cent of survival determined.

Data set [6] deals with MMV026596-selected cultures (parental line 3D7). The experiment in a line: EC50 on cultures selected with MMV026596. The following applies: hypersensitivity of cultures after 100 days of MMV026596 selection. It counts as cell-based, Plasmodium falciparum. An excerpt:
While we found an overall lack of pre-existing resistance, analysing the onset of resistance was critical, as compounds resulting in rapid resistance are not ideal for clinical development. We therefore sought to create drug-resistant parasites using a variety of different selection methods. We implemented either a high-dose method or a ramp-up/pulse method for our in vitro selections. Two of the 50 compounds—MMV028895 and MMV665824—were removed from the selection study during experimentation. […] Out of the remaining 48 compounds, resistant parasites were obtained for 23 (Supplementary Data 1). As each selection was performed in triplicate with three independent cultures, we succeeded in generating a total of 66 resistant cultures. Parasites resistant to MMV026596 were not obtained despite 100 days of selection, but the cultures acquired hypersensitivity to mefloquine with a 10-fold reduction in EC50 compared with its parental line, 3D7. For the remaining 24 compounds, acquisition of resistant parasites was unsuccessful despite numerous attempts over an extensive period of time.

The structures appear in SMILES notation. Where two headings read alike, the source gives them in different places.

As to `CCN(CC)CCCC(C)Nc1ccnc2cc(Cl)ccc12` (stereo not drawn) [chloroquine], in the data set on P. falciparum [1], the “rate of action of comparator antimalarials” value is “fast”.
As for `COc1ccc(NC(=O)N2CCCCN3[C@H](CO)[C@H](c4ccc(C#Cc5ccccc5)cc4)[C@@H]3C2)cc1` [BRD3444], the EC50 in the data set with W2 was 31 nM; in the data set with 3D7 (strain 3D7 (parent), read-out: 3D7 (PARENT) Average EC50), 45 nM; in the data set with 3D7 (strain 3D7-C9-WT (parent of PfATP4 Mut3), read-out: 3D7-C9-WT (PARENT) Average EC50), 35 nM; in data set [2] it was 37 nM.
In the case of `CCc1nc(N)nc(N)c1-c1ccc(Cl)cc1` [pyrimethamine], the “rate of action of comparator antimalarials” value with P. falciparum [1] is recorded as “moderate”.
On to `COc1ccc(C[C@H](N)C(=O)N[C@H]2[C@@H](O)[C@H](n3cnc4c(N(C)C)ncnc43)O[C@@H]2CO)cc1` [puromycin, reference compound], for which the EC50 in “Hepatocyte toxicity” came to 254 ± 36.6 nM; in data set [3], 32.7 ± 29.7 nM; in data set [4], 610 ± 110 nM.
Turning to `Cn1c(C(=O)c2cccc3ccccc23)nc2ccccc21` [MMV665824], in the data set on P. falciparum [5], the “Killing Rate” value is “ATQ (slow)”.
For `O=C1C(O)=C([C@H]2CC[C@H](c3ccc(Cl)cc3)CC2)C(=O)c2ccccc21` [atovaquone, reference compound], the values for the 50% effective concentration (EC50) (in the data set “Hepatocyte toxicity”; in data set [3]; in [4]) were 7720 ± 1370 nM, 0.419 ± 0.044 nM and greater than 12500 nM, respectively. Moreover, the “rate of action of comparator antimalarials” value with P. falciparum [1] is given as “slow”.
For `OC(c1cc(C(F)(F)F)nc2c(C(F)(F)F)cccc12)C1CCCCN1` (stereo not drawn) [mefloquine], the “reduction in EC50 compared with parental line 3D7” value in data set [6] is given as 10 fold.
